Results taken from publication PMC3914206.

What was measured:
panel of 442 kinases [1] = target: T1, panel of 442 kinases (Homo sapiens, UniProt Q13873); type: binding; conditions: Compound Concentration 10 µM
T1 construct: purchased KINOMEscan
T1 sequence (Q13873 27-1038): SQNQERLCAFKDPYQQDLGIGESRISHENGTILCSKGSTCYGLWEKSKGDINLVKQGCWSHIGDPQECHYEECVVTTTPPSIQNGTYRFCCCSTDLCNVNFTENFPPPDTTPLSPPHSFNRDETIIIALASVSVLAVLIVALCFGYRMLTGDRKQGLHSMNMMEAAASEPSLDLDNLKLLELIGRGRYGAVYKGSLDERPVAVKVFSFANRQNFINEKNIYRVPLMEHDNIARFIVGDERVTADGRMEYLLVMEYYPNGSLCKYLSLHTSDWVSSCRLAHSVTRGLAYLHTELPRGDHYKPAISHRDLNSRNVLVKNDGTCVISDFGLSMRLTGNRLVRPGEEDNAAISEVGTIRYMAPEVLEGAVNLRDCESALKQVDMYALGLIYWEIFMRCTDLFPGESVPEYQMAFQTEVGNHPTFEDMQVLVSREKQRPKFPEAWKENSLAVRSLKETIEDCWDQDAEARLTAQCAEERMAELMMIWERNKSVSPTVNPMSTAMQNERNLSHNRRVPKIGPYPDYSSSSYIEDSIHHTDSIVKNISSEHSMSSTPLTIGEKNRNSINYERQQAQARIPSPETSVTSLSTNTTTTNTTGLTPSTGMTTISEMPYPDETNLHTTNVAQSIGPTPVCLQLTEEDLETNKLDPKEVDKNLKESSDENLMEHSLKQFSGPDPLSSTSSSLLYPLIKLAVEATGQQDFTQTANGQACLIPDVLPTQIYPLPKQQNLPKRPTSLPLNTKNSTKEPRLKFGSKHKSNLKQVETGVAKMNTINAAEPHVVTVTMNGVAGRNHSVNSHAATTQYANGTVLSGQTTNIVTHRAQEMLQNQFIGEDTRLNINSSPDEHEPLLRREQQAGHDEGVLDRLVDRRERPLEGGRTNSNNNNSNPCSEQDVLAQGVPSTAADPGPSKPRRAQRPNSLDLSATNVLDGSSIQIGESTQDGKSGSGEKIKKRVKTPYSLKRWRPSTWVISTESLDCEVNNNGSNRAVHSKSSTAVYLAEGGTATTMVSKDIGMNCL
Description: (§1) We assessed the selectivity of members of this scaffold using the KINOMEscan methodology across a near comprehensive panel of 442 kinases [[18,27]].

panel of 442 kinases [2] = target: T2, panel of 442 kinases (Homo sapiens, UniProt Q13233); type: binding; conditions: Compound Concentration 10 µM
T2 construct: purchased KINOMEscan
Description: as §1

T2 sequence (Q13233 whole entry): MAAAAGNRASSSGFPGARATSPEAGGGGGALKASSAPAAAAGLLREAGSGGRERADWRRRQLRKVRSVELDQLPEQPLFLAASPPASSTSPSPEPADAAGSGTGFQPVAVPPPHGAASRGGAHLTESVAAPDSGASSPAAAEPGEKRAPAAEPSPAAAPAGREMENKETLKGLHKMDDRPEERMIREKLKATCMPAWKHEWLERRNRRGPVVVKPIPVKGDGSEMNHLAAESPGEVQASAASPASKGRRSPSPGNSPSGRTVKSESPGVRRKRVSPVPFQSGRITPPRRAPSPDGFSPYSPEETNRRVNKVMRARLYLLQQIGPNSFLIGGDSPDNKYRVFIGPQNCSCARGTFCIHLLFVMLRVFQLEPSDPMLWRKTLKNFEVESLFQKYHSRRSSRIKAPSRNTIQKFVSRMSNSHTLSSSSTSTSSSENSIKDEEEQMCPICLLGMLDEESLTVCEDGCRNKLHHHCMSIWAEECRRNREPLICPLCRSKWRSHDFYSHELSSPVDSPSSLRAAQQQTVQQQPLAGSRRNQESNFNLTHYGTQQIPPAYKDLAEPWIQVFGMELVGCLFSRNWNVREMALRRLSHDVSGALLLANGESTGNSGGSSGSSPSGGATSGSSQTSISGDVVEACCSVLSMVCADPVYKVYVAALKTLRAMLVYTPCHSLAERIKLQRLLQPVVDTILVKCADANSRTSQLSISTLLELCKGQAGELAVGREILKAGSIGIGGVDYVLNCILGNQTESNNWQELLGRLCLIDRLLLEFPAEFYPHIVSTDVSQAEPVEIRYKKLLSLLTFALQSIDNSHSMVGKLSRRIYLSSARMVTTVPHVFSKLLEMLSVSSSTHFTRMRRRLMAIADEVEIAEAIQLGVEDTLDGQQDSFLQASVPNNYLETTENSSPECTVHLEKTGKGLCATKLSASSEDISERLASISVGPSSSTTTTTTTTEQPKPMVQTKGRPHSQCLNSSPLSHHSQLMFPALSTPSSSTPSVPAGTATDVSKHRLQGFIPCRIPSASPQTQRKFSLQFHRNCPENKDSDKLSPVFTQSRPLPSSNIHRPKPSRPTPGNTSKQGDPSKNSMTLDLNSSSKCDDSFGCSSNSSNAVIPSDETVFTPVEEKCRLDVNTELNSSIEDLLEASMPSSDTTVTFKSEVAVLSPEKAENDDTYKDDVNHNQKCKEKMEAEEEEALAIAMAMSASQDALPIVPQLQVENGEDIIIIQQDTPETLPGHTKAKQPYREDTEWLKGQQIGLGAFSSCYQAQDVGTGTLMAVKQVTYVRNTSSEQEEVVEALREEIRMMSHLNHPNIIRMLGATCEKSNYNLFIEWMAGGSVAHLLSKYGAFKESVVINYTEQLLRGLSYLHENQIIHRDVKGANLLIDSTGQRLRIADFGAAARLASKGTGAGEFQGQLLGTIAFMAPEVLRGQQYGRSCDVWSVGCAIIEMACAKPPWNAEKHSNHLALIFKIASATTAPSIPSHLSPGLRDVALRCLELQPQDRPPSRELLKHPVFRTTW

| Compound | KINOMEscan: BMPR2 (panel of 442 kinases [1]) | KINOMEscan: MAP3K1 (panel of 442 kinases [2]) |
| --- | --- | --- |
| COc1cc(C(=O)N2CCC(N3CCN(C)CC3)CC2)ccc1Nc1ncc2c(n1)N(C1CCCC1)c1ccccc1C(=O)N2C [Compound 25, 11-cyclopentyl-2-((2-methoxy-4-(4-(4-methylpiperazin-1-yl)piperidine-1-carbonyl)phenyl)amino)-5-methyl-5H-benzo[e]pyrimido[5,4-b][1,4]diazepin-6(11H)-one] | 100 | 100 |
| CCOc1cc(C(=O)N2CCC(N3CCN(C)CC3)CC2)ccc1Nc1ncc2c(n1)N(C1CCCC1)c1ccccc1C(=O)N2C [Compound 26] | 93 | 93 |
| COc1cc(C(=O)N2CCC(N3CCN(C)CC3)CC2)ccc1Nc1ncc2c(n1)N(C)c1ccccc1C(=O)N2C [15 (LRRK2-IN-1)] | 100 | 95 |
